We go through one molecule from US12427138B2, “Treatment of Meniere's disease” (SOUND PHARMACEUTICALS INCORPORATED, priority 2016, dated 2025).

Series [1] has as its system adults with Meniere's disease. The series is described as follows: Phase 1b clinical study: safety and tolerability of SPI-1005. Type of series: in vivo, human. Conditions: first two cohorts (26 of 40 subjects); for safety and tolerability: oral dosing BID for 21 days. Here is the method:
(§1) The general approach for the investigation of the safety and efficacy of SPI-1005 for Meniere's disease is conducting this phase lb, safety, pharmacokinetic and pharmacodynamic study in 40 adults with Meniere's disease. The study is evaluating escalating doses of SPI-1005 at 200, 400 or 600 mg po BID versus placebo for twenty-one days for impact on pure-tone audiometry, speech discrimination, electrocochleography, and patient-reported outcomes using validated questionnaires for assessing vertigo and tinnitus (Hornibrook, et al., 2012; Meikle, et al., 2011; Yardley, et al., 2004). This study is ongoing and being conducted in compliance with the protocol, Good Clinical Practice (GCP) and the applicable regulatory requirements.
The safety and tolerability of SPI-1005 is being determined by examining the toxicities and adverse events that are attributable to treatment. […]
Before, during, and for 28 days after administration of SPI-1005, patients were evaluated for safety by history, physical examination, vital signs and blood tests (complete blood count [CBC], Chemistry-20 [Chem-20]). Peak and trough plasma levels of ebselen and its major metabolite were determined using liquid chromatography-mass spectrometry (LCMS) at certain time points. Additionally, plasma was analyzed by High Performance Liquid Chromatography-Inductively Coupled Plasma-Mass Spectrometry (HPLC-ICP-MS) for total selenium at the corresponding time points. Patients were monitored for adverse events at each clinic visit. Female patients received pregnancy testing, and those found to be pregnant were excluded or discontinued from the study and monitored for adverse events. […]
History and physical examinations, vital signs and analysis of lab reports were performed to evaluate the safety of SPI-1005. […] Blood test results were analyzed according to currently established laboratory norms. […]
Blood testing was performed at specified intervals to evaluate the safety of SPI-1005. […] Blood was collected and shipped to a designated CRO(s) to quantify ebselen, ebselen metabolite, and total selenium. […]

Series [2] relates to adults with Meniere's disease. Kind of series: Phase 1b clinical study: pure-tone audiometry (PTA), low frequency hearing. It counts as in vivo, human. Here is the method:
as §1
(§2) The effect of SPI-1005 on hearing and vertigo was evaluated at baseline, at the end of 21 days of treatment and 28 days after completing treatment. Tinnitus was evaluated at baseline, weekly during treatment, and 7 and 28 days after treatment. Hearing was evaluated using pure-tone audiometric testing at 0.25, 0.5, 1, 2, 3, 4, 6, and 8 kHz, and speech discrimination using the WINT at 24, 20, 16, 12, 8, 4, and 0 Signal-to-Noise ratio (SNR). The severity of vertigo was assessed using the VSS. The severity of tinnitus was assessed using the TFI. In addition, ECochG was conducted at baseline, at the end of treatment and 28 days after completing treatment in order to measure the pharmacodynamic response.
(§3) Audiological evaluations were performed at specified intervals to evaluate the efficacy of SPI-1005. […] These were scored by study personnel. […]
(§4) Audiometric data were collected in the form of categorical and continuous variables. Categorical data were analyzed using the chi-square distribution. Continuous data were analyzed using mixed-effects multiple-repeated measures, and post-hoc analysis, when necessary, was adjusted using Bonferroni applications. Non-parametric tests included the Mann-Whitney U. Calculated p-values were considered statistically significant at or below an alpha value of 0.05. […]

Series [3] has as its system adults with Meniere's disease. The series is described as follows: Phase 1b clinical study: speech discrimination, Words-in-Noise Test (WINT) / word recognition scores. Type of series: in vivo, human. As for the experimental part: as §1, §2, §3, §4
Series [4] concerns adults with Meniere's disease. The series is described as follows: Phase 1b clinical study: Tinnitus Functional Index (TFI). Type of series: in vivo, human. As for the experimental part:
(§5) The general approach for the investigation of the safety and efficacy of SPI-1005 for Meniere's disease is conducting this phase lb, safety, pharmacokinetic and pharmacodynamic study in 40 adults with Meniere's disease. The study is evaluating escalating doses of SPI-1005 at 200, 400 or 600 mg po BID versus placebo for twenty-one days for impact on pure-tone audiometry, speech discrimination, electrocochleography, and patient-reported outcomes using validated questionnaires for assessing vertigo and tinnitus (Hornibrook, et al., 2012; Meikle, et al., 2011; Yardley, et al., 2004). […]
(§6) The effect of SPI-1005 on hearing and vertigo was evaluated at baseline, at the end of 21 days of treatment and 28 days after completing treatment. Tinnitus was evaluated at baseline, weekly during treatment, and 7 and 28 days after treatment. Hearing was evaluated using pure-tone audiometric testing at 0.25, 0.5, 1, 2, 3, 4, 6, and 8 kHz, and speech discrimination using the WINT at 24, 20, 16, 12, 8, 4, and 0 Signal-to-Noise ratio (SNR). The severity of vertigo was assessed using the VSS. The severity of tinnitus was assessed using the TFI. […]
as §3

Series [5] has as its system adults with Meniere's disease. The series is described as follows: Phase 1b clinical study: Tinnitus Loudness (TL) visual analogue scale. Type of series: in vivo, human. As for the experimental part: as §1
Multiple clinical assessments and analysis of auditory and vestibular function • Pure tone audiometry and word recognition scores: Baseline, 21d tx, and 28d post-tx • Hearing loss is typically unilateral and low frequency (0.25, 0.5 and 1 kHz) • Significant hearing improvement ≥10 dB reduction from baseline • Words in noise tests (WINT) 35 words under 7 different SNRs to each ear (0-35) • Significant WINT improvement ≥10% increase from baseline • Tinnitus Functional Index (TFI) : Baseline, and 7d, 14d and 21d tx, and 7d and 28d post-tx • 25 questions answered by patient regarding their tinnitus severity (0-100) • Significant TFI improvement ≥10 pt reduction from baseline • Tinnitus Loudness (TL) answered by patient on a visual analogue scale (0-10) • Significant TL improvement ≥2 pt reduction from baseline • Vertigo Symptom Scale (VSS): Baseline, 21d tx, and 28d post-tx • 15 questions answered by patient regarding their vertigo severity (0-60) • Significant VSS improvement ≥6 pt reduction from baseline

Series [6] has as its system adults with Meniere's disease. Kind of series: Phase 1b clinical study: Vertigo Symptom Scale (VSS). Type of series: in vivo, human. As for the experimental part:
as §5, §6, §3

The subject of series [7] is adults with Meniere's disease. The series is described as follows: Phase 1b clinical study: initial analysis of efficacy, secondary endpoints versus placebo. Conditions: two analyzed cohorts. It counts as in vivo, human. Here is the method: as §1, with “requirements. […]” for “requirements.”
Study participants were been randomized to SPI-1005 or placebo in this double-blind, dose-escalation study to evaluate its safety and preliminary efficacy. Patients, aged 19-70 years, with probable or definite Meniere's disease have undergone baseline testing to have their severity of sensorineural hearing loss, tinnitus and vertigo determined before the start of study treatment (see Table 3: Schedule of Assessments). […]

For series [8] the following is noted: 25° Celsius; cited from earlier work.
For series [9] the following is noted: Noguchi et al., 1992; 1994; cited from earlier work.
In series [10] the test system is cytochrome-C release from mitochondria. As to conditions: during lipid peroxidation; Namura et al., 2001; cited from earlier work.
Series [11] deals with cochlea following noise- or ototoxin-induced injury. Conditions: preclinical animal studies; cited from earlier work.

Structures are written as SMILES. Entries after “also recorded” stand apart in the source; their conditions may differ. A value given as a limit tells only on which side of the number the result lay.

`O=c1c2ccccc2[se]n1-c1ccccc1` [ebselen, 2-phenyl-1,2-benzisoselenazol-3(2H)-one]: the drug-related adverse events result in series [1] is listed as “no drug-related adverse events have occurred”. For the same molecule, the safety and tolerability entry is “safe and well tolerated” in series [1]; “well tolerated with no adverse events due to study drug” in series [1] (listed as SPI-1005). The “highest improvement in low frequency (0.25, 0.5, and 1 kHz) hearing” value in [2] (PTA, oral dosing 21 days, first two cohorts) is recorded as ≤ 35 dB. In addition, the “PTA improvement, actives vs placebos” value in series [2] (first two cohorts) is “significant and specific to actives vs placebos”. Further, in [2] (≥10 dB reduction from baseline, no significant improvement in placebos), the “share of actives with significant hearing improvement ≥10 dB” value stood at 60%. In addition, the “WINT improvement, actives vs placebos” value in [3] (first two cohorts) was “significant and specific to actives vs placebos”. Besides, in series [3] (word recognition scores, oral dosing 21 days), the “highest improvement over baseline WRS” value is recorded as ≤ 120%. The “share of actives with significant WINT improvement ≥10% increase” value in series [3] (≥10% increase from baseline, no significant improvement in placebos) came out at 35%. In addition, the “share of actives with significant TFI improvement ≥10 pt reduction” value in [4] (placebo 50%) was determined as 40%. Moreover, the “highest improvement in TFI score (reduction)” value in series [4] (scale 0-100) was ≤ 62 pt. Also, the “TL improvement, actives vs placebo” value in series [5] (human, in vivo) is given as “greater in actives than placebo”. Further, the “share of actives with significant TL improvement ≥2 pt reduction” value in series [5] (placebo 33%) is recorded as 70%. Moreover, the “highest improvement in tinnitus loudness (reduction)” value in [5] (scale 0-10) was ≤ 8 pt. Also, the “VSS improvement, actives vs placebo” value in series [6] (human, in vivo) is “greater in actives than placebo”. In addition, in series [6] (placebo 33%), the “share of actives with significant VSS improvement ≥6 pt reduction” value was 55%. Further, the “clinical efficacy (hearing, tinnitus, vertigo) versus placebo” value in series [7] is “achieved several secondary endpoints versus placebo; also recorded: good clinical efficacy”; in [7] (listed as Ebselen), “clinically relevant improvements in hearing, tinnitus and vertigo”. Further, in series [8], the “solubility in aqueous solutions” value was “slightly soluble”. In addition, the activity against peroxynitrite entry in series [9] was “strong activity against peroxynitrite”. Further, in series [10], the “effect on cytochrome-C release from mitochondria and nuclear damage” value is “reduces cytochrome-C release from mitochondria and nuclear damage”. In addition, the “effect on pathologic changes in the cochlea” value in series [11] is recorded as “prevent or reverse the pathologic changes in the cochlea”.
